# Experimental data from patent US20220089612A1, “HETEROCYCLIC COMPOUNDS AS PRMT5 INHIBITORS” (ANGEX PHARMACEUTICAL, INC., priority 2017, published 2022).
# Biological target: PRMT5:MEP50 (Homo sapiens, UniProt O14744)
# Test: PRMT5:MEP50 Flashplate Assay
# Type: biochemical
# Settings: PRMT5:MEP50 inhibitory activity; 3H-SAM, 2 h at room temperature, top concentration 10 μM
# Protocol: PRMT5:MEP50 Flashplate Assay:
# Ten-point curves of inhibitor compounds were made using serial threefold dilutions in DMSO (the final top concentration of compound was 10 μM, 1% DMSO). Reaction mixture consisting of 50 mM Tris-HCl (pH 8.5), 0.002% Tween 20, 0.005% BSA (Bovine Serum Albumin), 1 mM TCEP, and 1% DMSO. Substrates are freshly prepared in reaction buffer. PRMT5:MEP50 was then added into substrate solution and mixed gently. Inhibitor compound was then added and incubated for 30 min at room temperature. ^3H-SAM was added to initiate the reaction. Reactions were incubated for 2 h at room temperature and quenched with 0.5 mM SAM (S-adenosyl-L-Methionine) in assay buffer. An aliquot of the reaction mix was transferred to a streptavidin-coated 384-well FlashPlate (PerkinElmer). After an incubation time of 1 h, the plate was washed and then read on a TopCount (PerkinElmer) to measure the amount of tritium incorporated into the peptide substrate. IC50 was calculated using conventional curve-fitting method.
# Sequence of PRMT5:MEP50 (O14744 whole entry, species assumed): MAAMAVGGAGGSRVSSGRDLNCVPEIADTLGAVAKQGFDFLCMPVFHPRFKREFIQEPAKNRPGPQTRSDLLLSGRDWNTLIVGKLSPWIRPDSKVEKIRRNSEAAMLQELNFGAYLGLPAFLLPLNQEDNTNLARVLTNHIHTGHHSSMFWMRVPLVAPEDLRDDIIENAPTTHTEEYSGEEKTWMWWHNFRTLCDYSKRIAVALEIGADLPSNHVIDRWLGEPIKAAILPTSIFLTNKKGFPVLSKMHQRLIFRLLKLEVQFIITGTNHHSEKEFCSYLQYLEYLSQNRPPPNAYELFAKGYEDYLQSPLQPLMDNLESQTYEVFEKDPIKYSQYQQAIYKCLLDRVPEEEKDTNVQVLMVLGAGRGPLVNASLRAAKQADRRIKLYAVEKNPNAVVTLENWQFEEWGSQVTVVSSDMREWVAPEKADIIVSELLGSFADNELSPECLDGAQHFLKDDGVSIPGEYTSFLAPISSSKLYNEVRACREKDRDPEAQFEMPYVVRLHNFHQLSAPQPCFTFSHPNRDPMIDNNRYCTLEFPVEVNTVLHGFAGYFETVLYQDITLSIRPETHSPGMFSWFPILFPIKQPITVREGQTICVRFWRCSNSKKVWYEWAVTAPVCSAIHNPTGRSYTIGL
# Sequence of PRMT5:MEP50 (Q9BQA1 whole entry partner, species assumed): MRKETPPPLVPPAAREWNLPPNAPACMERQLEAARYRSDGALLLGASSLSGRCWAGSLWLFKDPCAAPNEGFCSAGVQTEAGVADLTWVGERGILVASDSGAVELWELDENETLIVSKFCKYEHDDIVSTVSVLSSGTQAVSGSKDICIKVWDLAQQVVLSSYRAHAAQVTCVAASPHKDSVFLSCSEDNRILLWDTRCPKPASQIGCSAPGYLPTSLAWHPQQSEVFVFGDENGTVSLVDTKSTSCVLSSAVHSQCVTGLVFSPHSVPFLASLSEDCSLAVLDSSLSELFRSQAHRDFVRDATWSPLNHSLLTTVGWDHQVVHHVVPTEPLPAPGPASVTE
row,IC50,Compound
1,< 1 nM,"Nc1ncnc2c1ccn2[C@@H]1C[C@H](CCc2ccc3cc4c(nc3c2)NCC4)[C@@H](O)[C@H]1O [Compound 1-7, (1R,2S,3R,5S)-3-(4-amino-7H-pyrrolo[2,3-d]pyrimidin-7-yl)-5-(2-(2,3-dihydro-1H-pyrrolo[2,3-b]quinolin-7-yl)ethyl)cyclopentane-1,2-diol]"
2,< 1 nM,"Nc1ncnc2c1ccn2[C@@H]1C[C@H](CCc2ccc3c(c2)nc(N)n2ccnc32)[C@@H](O)[C@H]1O [Compound 1-9, (1R,2S,3R,5S)-3-(4-amino-7H-pyrrolo[2,3-d]pyrimidin-7-yl)-5-(2-(5-aminoimidazo-[1,2-c]quinazolin-8-yl)ethyl)cyclopentane-1,2-diol]"
3,< 1 nM,"NC1=Nc2cc(CC[C@H]3O[C@@H](n4ccc5c(N)ncnc54)[C@H](O)[C@@H]3O)ccc2C2=NCCN12 [Compound 3-10, (2R,3S,4R,5R)-2-(2-(5-amino-2,3-dihydroimidazo[1,2-c]quinazolin-8-yl)ethyl)-5-(4-amino-7H-pyrrolo[2,3-d]pyrimidin-7-yl)tetrahydrofuran-3,4-diol]"
4,1 to 100 nM,"Nc1ncnc2c1ccn2[C@@H]1C[C@H](CCc2ccc3cc4c(=O)[nH][nH]c4nc3c2)[C@@H](O)[C@H]1O [Compound 1-32, 7-(2-((1S,2R,3S,4R)-4-(4-amino-7H-pyrrolo[2,3-d]pyrimidin-7-yl)-2,3-dihydroxycyclopentyl)ethyl)-1,2-dihydro-3H-pyrazolo[3,4-b]quinolin-3-one]"
